Measured values from patent US20030162814A1, “N-substituted 1-amino-1,1-dialkylcarboxylic acid derivatives” (priority 2000, published 2003).

| melting point [°C] | SMILES |
| --- | --- |
| 190 to 193 | CC(C)(C)NS(=O)(=O)c1ccccc1-c1ccc(NC(=O)C(C)(C)Nc2cccc(C#N)c2)cc1 [CB, N-(2′-tert-butylsulfamoyl-biphenyl-4-yl)-2-(3-cyanophenylamino)-2-methylpropionamide] |
| 197 | CC(C)(Nc1cccc(C(=N)N)c1)C(=O)Nc1ccc(-c2ccccc2S(N)(=O)=O)cc1.O=C(O)C(F)(F)F |
| 153 | CC(=O)O.CC(C)(C)NS(=O)(=O)c1ccccc1-c1ccc(NC(=O)C(C)(C)Nc2cccc(C(=N)N)c2)cc1 |
